We go through one molecule from publication PMC2792609, “Effect of methomyl on hepatic mixed function oxidases in rats” (Indian Journal of Pharmacology, 2008).

The subject of one data set is Aniline hydroxylase. Nature of the data set: Hepatic microsomal aniline hydroxylase activity. Type of data set: in vivo, rat. The following applies: for decrease in the activity of aniline hydroxylase / decrease in activity of aniline hydroxylase: vs control. As to the method:
Adult male rats (weighing 200-230 g) were divided into four groups of six animals each. Group 1 received an equivalent amount of saline and served as control. Animals from group 2, 3, and 4 were given methomyl 1, 2, and 4 mg/kg body weight i.p. respectively, between 8: 00 a.m. and 9:00 a.m., for three consecutive days. In the second set of experiments, adult male rats were divided into four groups. Animals from group 2, 3, and 4 were injected with 4 mg/kg body weight methomyl for one, three, and five successive days. The volume injected into the rats of body weight 200 g was 1 ml. In another experiment, adult female rats and old male rats (weighing 350-450 g, 8 months old) were divided into two groups of six animals each. Group 2 of each category received methomyl (4 mg/kg body weight, i.p., for three successive days), and group 1 of each category received an equivalent amount of saline and served as the control group.
The rats were sacrificed by cervical dislocation, 24 hours after the last dose. Their livers were perfused in situ with ice cold 1.15% KCl containing 0.05 mM EDTA, rapidly excised, blotted dry, weighed, minced and homogenized with two volumes of ice cold 0.25 M sucrose solution, in a Potter-Elvehjem type homogenizer. The homogenate was centrifuged at 10,000 × g for 10 min, in a refrigerated centrifuge (REMI C-24). The microsomes were isolated by the procedure described by of Cinti et al.[4] The microsomal pellet was suspended in phosphate buffer (0.1 M, pH 7.4) and the suspension was used for the microsomal enzyme assays. Microsomal protein content was measured by the Biuret method, using bovine serum albumin as the standard.[5]
The microsomal electron transport components (cytochrome P450 and cytochrome b5) were determined using Hitachi UV-Visible double beam recording spectrophotometer, by the procedure of Omura and Sato.[67] Cytochrome c reductase activity was determined using the method recommended by Masters et al.[8] Aminopyrine N-demethylase activity was assayed according to the procedure described by Schenkman et al.[9] Formaldehyde liberated during N-demethylation was estimated by the procedure described by Nash.[10] Aniline hydroxylase assay was performed using the procedure reported by Govindwar and Dalvi.[11]

A further data set in a line: Serum total protein. Type of data set: in vivo, rat. The following applies: female rats; for Serum total protein: for 3 days; for decrease in total protein content: 3 days.

As to `CNC(=O)ON=C(C)SC` [methomyl, S-methyl-N-(methyl carbomyl)-thioacetimidate], the “decrease in the activity of aniline hydroxylase” value came out at 43% in the data set on Aniline hydroxylase (adult female rat, 4 mg/kg i.p., three days) and 27% with Aniline hydroxylase (adult male rats, 4 mg/kg i.p., 3 days). Besides, the Aniline hydroxylase is on record as 0.45 nmole of p-aminophenol formed/min/mg/microsomal protein with Aniline hydroxylase (adult female rats, 4 mg/kg body weight, i.p., three days); 1.35 nmole of p-aminophenol formed/min/mg microsomalprotein in the data set on Aniline hydroxylase (adult male rats, 1 mg/kg i.p., for 3 days); 1.17 nmole of p-aminophenol formed/min/mg microsomalprotein in the data set on Aniline hydroxylase (adult male rats, 2 mg/kg i.p., for 3 days); 0.80 nmole of p-aminophenol formed/min/mg microsomalprotein with Aniline hydroxylase (adult male rats, 4 mg/kg i.p., for 3 days); 0.60 nmole of p-aminophenol formed/min/mg/microsomal protein with Aniline hydroxylase (adult rats, 4 mg/kg i.p., 1 day of treatment); 0.33 nmole of p-aminophenol formed/min/mg/microsomal protein with Aniline hydroxylase (adult rats, 4 mg/kg i.p., 3 days of treatment). The Aniline hydroxylase is 0.93 nmole of p-aminophenol formed/min/mg/microsomal protein in the data set with Aniline hydroxylase (adult rats, 4 mg/kg i.p., 5 days of treatment) and 1.80 nmole of p-aminophenol formed/min/mg/microsomal protein in the data set with Aniline hydroxylase (old male rats, 4 mg/kg body weight, i.p., three days). Also, the “decrease in activity of aniline hydroxylase” value in the data set on Aniline hydroxylase (adult male rats, 4 mg/kg i.p., five days) is reported as 17%; in the data set on Aniline hydroxylase (adult male rats, 4 mg/kg i.p., one day), 47%; in the data set with Aniline hydroxylase (adult male rats, 4 mg/kg i.p., three days), 71%. Also, the results for the Serum total protein in “Serum total protein” (1 mg/kg body weight i.p.) and in “Serum total protein” (2 mg/kg body weight i.p.) were 1.90 g/dL and 1.96 g/dL, respectively. Moreover, the “decrease in total protein content” value in the data set “Serum total protein” (1 mg/kg i.p.) was determined as 14%; in “Serum total protein” (2 mg/kg i.p.), 11%.
